Data as given in ChEMBL document CHEMBL1201861, “Genomics of Drug Sensitity in Cancer screening data, Wellcome Trust Sanger Institute”.

Legend:
Experiment in all cases: cells
COR-L23 = format: functional, cell-based, Homo sapiens; details: Homo sapiens, COR-L23;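 also: cell viability assay measuring how strongly compounds suppress growth of COR-L23 cells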
Description: SANGER: Inhibition of human COR-L23 cell growth in a cell viability assay.

CaR-1 = format: functional, cell-based, Homo sapiens; details: Homo sapiens, CaR-1;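 also: growth inhibition of human CaR-1 cancer cells, read out with a cell viability assay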
Description: SANGER: Inhibition of human CaR-1 cell growth in a cell viability assay.

ChaGo-K-1 = format: functional, cell-based; details: Homo sapiens;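 also: growth inhibition of ChaGo-K-1 cells, read out with a cell viability assay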
Description: SANGER: Inhibition of human ChaGo-K-1 cell growth in a cell viability assay.

D-566MG = format: functional, cell-based; details: Homo sapiens
DoTc2-4510 = format: functional, cell-based, Homo sapiens; details: Homo sapiens, DoTc2-4510
ESS-1 = format: functional, cell-based, Homo sapiens; details: Homo sapiens, ESS-1;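 also: growth inhibition of human ESS-1 cells, read out by a cell viability assay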
Description: SANGER: Inhibition of human ESS-1 cell growth in a cell viability assay.

EW-16 = format: functional, cell-based, Homo sapiens; details: Homo sapiens, EW-16;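 also: growth inhibition of human EW-16 cells, read out as cell viability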
Description: SANGER: Inhibition of human EW-16 cell growth in a cell viability assay.

H9 = format: functional, cell-based; details: Homo sapiens
Description: SANGER: Inhibition of human H9 cell growth in a cell viability assay.

HCE-T = format: functional, cell-based, Homo sapiens; details: Homo sapiens, HCE-T;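 also: cell viability assay read-out, reporting inhibition of HCE-T cell growth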
Description: SANGER: Inhibition of human HCE-T cell growth in a cell viability assay.

HCT-15 = format: functional, cell-based, Homo sapiens; details: Homo sapiens, HCT-15;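 also: cell viability readout, IC50 reflecting suppression of HCT-15 cell growth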
Description: SANGER: Inhibition of human HCT-15 cell growth in a cell viability assay.

HLE = format: functional, cell-based, Homo sapiens; details: Homo sapiens, HLE;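 also: growth inhibition of human HLE cells, read out by a cell viability assay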
Description: SANGER: Inhibition of human HLE cell growth in a cell viability assay.

HPAF-II = format: functional, cell-based, Homo sapiens; details: Homo sapiens, HPAF-II;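 also: growth inhibition of HPAF-II cells, read out with a cell viability assay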
Description: SANGER: Inhibition of human HPAF-II cell growth in a cell viability assay.

HT55 = format: functional, cell-based, Homo sapiens; details: Homo sapiens, HT55;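 also: cell viability readout measuring growth inhibition of human HT55 cells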
Description: SANGER: Inhibition of human HT55 cell growth in a cell viability assay.

KARPAS-299 = format: functional, cell-based; details: Homo sapiens
Description: SANGER: Inhibition of human KARPAS-299 cell growth in a cell viability assay.

KM-H2 = format: functional, cell-based; details: Homo sapiens;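 also: growth inhibition of KM-H2 cells, read out by a cell viability assay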
Description: SANGER: Inhibition of human KM-H2 cell growth in a cell viability assay.

KNS-62 = format: functional, cell-based; details: Homo sapiens;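 also: inhibition of cell growth, read out with a cell viability assay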
Description: SANGER: Inhibition of human KNS-62 cell growth in a cell viability assay.

LU-135 = format: functional, cell-based; details: Homo sapiens
Description: SANGER: Inhibition of human LU-135 cell growth in a cell viability assay.

MEL-HO = format: functional, cell-based, Homo sapiens; details: Homo sapiens, MEL-HO
Description: SANGER: Inhibition of human MEL-HO cell growth in a cell viability assay.

MHH-ES-1 = format: functional, cell-based, Homo sapiens; details: Homo sapiens, MHH-ES-1;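 also: cell growth inhibition measured by a cell viability assay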
Description: SANGER: Inhibition of human MHH-ES-1 cell growth in a cell viability assay.

NCI-H1666 = format: functional, cell-based; details: Homo sapiens;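 also: growth inhibition of the cell line, read out with a cell viability assay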
Description: SANGER: Inhibition of human NCI-H1666 cell growth in a cell viability assay.

NCI-H460 = format: functional, cell-based, Homo sapiens; details: Homo sapiens, NCI-H460;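 also: cell viability assay scoring growth inhibition of human NCI-H460 cells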
Description: SANGER: Inhibition of human NCI-H460 cell growth in a cell viability assay.

OVCAR-8 = format: functional, cell-based, Homo sapiens; details: Homo sapiens, OVCAR-8;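 also: growth inhibition of human OVCAR-8 cells, read out by a cell viability assay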
Description: SANGER: Inhibition of human OVCAR-8 cell growth in a cell viability assay.

RH-18 = format: functional, cell-based; details: Homo sapiens, Rh18;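 also: growth inhibition of human RH-18 cells, read out with a cell viability assay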
Description: SANGER: Inhibition of human RH-18 cell growth in a cell viability assay.

RPMI-8866 = format: functional, cell-based; details: Homo sapiens
Description: SANGER: Inhibition of human RPMI-8866 cell growth in a cell viability assay.

SK-MEL-1 = format: functional, cell-based; details: Homo sapiens;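 also: growth inhibition of human SK-MEL-1 cells, read out by a cell viability assay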
Description: SANGER: Inhibition of human SK-MEL-1 cell growth in a cell viability assay.

SKG-IIIa = format: functional, cell-based, Homo sapiens; details: Homo sapiens, SKG-IIIa;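 also: cell growth inhibition, read out with a cell viability assay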
Description: SANGER: Inhibition of human SKG-IIIa cell growth in a cell viability assay.

8305C = format: functional, cell-based, Homo sapiens; details: Homo sapiens, 8305C
Description: SANGER: Inhibition of human 8305C cell growth in a cell viability assay.

A549 = format: functional, cell-based; details: Homo sapiens;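 also: growth inhibition of A549 cells, read out with a cell viability assay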
Description: SANGER: Inhibition of human A549 cell growth in a cell viability assay.

TK-10 = format: functional, cell-based, Homo sapiens; details: Homo sapiens, TK-10;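 also: growth inhibition of TK-10 cells, read out in a cell viability assay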
Description: SANGER: Inhibition of human TK10 cell growth in a cell viability assay.

CFPAC-1 = format: functional, cell-based; details: Homo sapiens;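 also: cell viability readout used to gauge suppression of CFPAC-1 cell proliferation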
Description: SANGER: Inhibition of human CFPAC-1 cell growth in a cell viability assay.

Kasumi 1 = format: functional, cell-based; details: Homo sapiens;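 also: growth inhibition of human Kasumi-1 cells, read out by a cell viability assay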
Description: SANGER: Inhibition of human KASUMI-1 cell growth in a cell viability assay.

Row | Structure (SMILES) | IC50 (COR-L23) [nM] | IC50 (CaR-1) [nM] | IC50 (ChaGo-K-1) [nM] | IC50 (D-566MG) [nM] | IC50 (DoTc2-4510) [nM] | IC50 (ESS-1) [nM] | IC50 (EW-16) [nM] | IC50 (H9) [nM] | IC50 (HCE-T) [nM] | IC50 (HLE) [nM] | IC50 (HPAF-II) [nM] | IC50 (KARPAS-299) [nM] | IC50 (KM-H2) [nM] | IC50 (KNS-62) [nM] | IC50 (LU-135) [nM] | IC50 (MEL-HO) [nM] | IC50 (MHH-ES-1) [nM] | IC50 (NCI-H1666) [nM] | IC50 (OVCAR-8) [nM] | IC50 (RH-18) [nM] | further results
1 | CCOc1nc(NC(=O)Cc2cc(OC)ccc2OC)cc(N)c1C#N | > 10000 | > 10000 | > 10000 | > 10000 | > 10000 | > 10000 | > 10000 | > 10000 | > 10000 | > 10000 | > 10000 | > 10000 | > 10000 | > 10000 | > 10000 | > 10000 | > 10000 | > 10000 | > 10000 | > 10000 | IC50 (HCT-15): > 10000 nM; IC50 (HT55): > 10000 nM; IC50 (NCI-H460): > 10000 nM; IC50 (RPMI-8866): > 10000 nM; IC50 (SK-MEL-1): > 10000 nM; IC50 (SKG-IIIa): > 10000 nM; IC50 (8305C): > 10000 nM; IC50 (A549): > 10000 nM; IC50 (TK-10): > 10000 nM; IC50 (CFPAC-1): > 10000 nM
2 | CC(=O)O[C@@H]1[C@@H](OC(C)=O)[C@@H](O)[C@H](Oc2c(-c3ccc(O)cc3)oc3cc(O)cc(O)c3c2=O)O[C@H]1C | > 10000 | > 10000 | > 10000 | > 10000 | > 10000 | > 10000 | > 10000 | > 10000 | > 10000 | > 10000 | > 10000 | > 10000 | > 10000 | > 10000 | > 10000 | > 10000 | > 10000 | > 10000 | > 10000 | > 10000 | IC50 (HCT-15): > 10000 nM; IC50 (NCI-H460): > 10000 nM; IC50 (RPMI-8866): > 10000 nM; IC50 (SK-MEL-1): 9050 nM; IC50 (SKG-IIIa): > 10000 nM; IC50 (8305C): > 10000 nM; IC50 (A549): > 10000 nM; IC50 (TK-10): > 10000 nM; IC50 (CFPAC-1): > 10000 nM
3 | COc1cc(F)c(F)c(Nc2ccc(I)cc2F)c1NS(=O)(=O)C1(CC(O)CO)CC1 (stereo not drawn) | 2780 | > 5000 | > 5000 | 4270 | > 5000 | > 5000 | > 5000 | 20.1 | > 5000 | > 5000 | 1020 | > 5000 | > 5000 | 1870 | > 5000 | 39.4 | > 5000 | 889 | > 5000 | > 5000 | IC50 (HT55): 2430 nM; IC50 (NCI-H460): 2520 nM; IC50 (RPMI-8866): > 5000 nM; IC50 (SK-MEL-1): > 5000 nM; IC50 (SKG-IIIa): > 5000 nM; IC50 (8305C): 1290 nM; IC50 (A549): 116 nM; IC50 (TK-10): 2210 nM; IC50 (CFPAC-1): > 5000 nM
4 | O=C1N=C(NCc2cccs2)S/C1=C\c1ccc2ncccc2c1 | > 5000 | > 5000 | > 5000 | > 5000 | > 5000 | > 5000 | > 5000 | > 5000 | > 5000 | > 5000 | > 5000 | > 5000 | > 5000 | > 5000 | > 5000 | > 5000 | > 5000 | > 5000 | > 5000 | > 5000 | IC50 (HT55): > 5000 nM; IC50 (NCI-H460): > 5000 nM; IC50 (RPMI-8866): > 5000 nM; IC50 (SK-MEL-1): > 5000 nM; IC50 (SKG-IIIa): > 5000 nM; IC50 (8305C): > 5000 nM; IC50 (A549): > 5000 nM; IC50 (TK-10): > 5000 nM; IC50 (CFPAC-1): > 5000 nM
5 | COc1ccc(-c2ccc3c(N4CCOC[C@@H]4C)nc(N4CCOC[C@@H]4C)nc3n2)cc1CO [AZD-8055] | 1350 | 1750 | > 2000 | 1070 | > 2000 | > 2000 | 1440 | 66.9 | 1180 | 748 | 808 | > 2000 | 1560 | 506 | > 2000 | 678 | 835 | > 2000 | > 2000 | > 2000 | IC50 (HT55): > 2000 nM; IC50 (NCI-H460): 506 nM; IC50 (RPMI-8866): 858 nM; IC50 (SK-MEL-1): > 2000 nM; IC50 (SKG-IIIa): 1310 nM; IC50 (8305C): 708 nM; IC50 (A549): 195 nM; IC50 (TK-10): 1360 nM; IC50 (CFPAC-1): > 2000 nM
6 | CC(=O)O[C@@]12CO[C@@H]1C[C@H](O)[C@@]1(C)C(=O)[C@H](O)C3=C(C)[C@@H](OC(=O)[C@H](O)[C@@H](NC(=O)OC(C)(C)C)c4ccccc4)C[C@@](O)([C@@H](OC(=O)c4ccccc4)[C@H]21)C3(C)C [DOCETAXEL] | 2.2 | 3.27 | 9.88 | 0.182 | > 10 | 0.179 | 1.35 | 1.24 | 0.162 | 4.05 | 9.26 | > 10 | > 10 | 1.12 | > 10 | > 10 | 0.7 | 5.05 | 2.12 | > 10 | IC50 (HT55): > 10 nM; IC50 (Kasumi 1): 5.11 nM; IC50 (RPMI-8866): 2.81 nM; IC50 (SK-MEL-1): > 10 nM; IC50 (SKG-IIIa): 2.86 nM; IC50 (8305C): 5.76 nM; IC50 (A549): 0.882 nM; IC50 (TK-10): 9.77 nM; IC50 (CFPAC-1): > 10 nM
7 | COc1ccc(C2=N[C@@H](c3ccc(Cl)cc3)[C@@H](c3ccc(Cl)cc3)N2C(=O)N2CCNC(=O)C2)c(OC(C)C)c1 [NUTLIN-3] | > 8000 | > 8000 | > 8000 | > 8000 | > 8000 | > 8000 | > 8000 | > 8000 | > 8000 | > 8000 | > 8000 | > 8000 | 7890 | > 8000 | > 8000 | 5860 | > 8000 | > 8000 | > 8000 | 4280 | IC50 (HT55): > 8000 nM; IC50 (NCI-H460): 4910 nM; IC50 (RPMI-8866): 2560 nM; IC50 (SK-MEL-1): > 8000 nM; IC50 (SKG-IIIa): > 8000 nM; IC50 (8305C): > 8000 nM; IC50 (A549): 3640 nM; IC50 (TK-10): > 8000 nM; IC50 (CFPAC-1): > 8000 nM
8 | O=C(c1cc(Cc2n[nH]c(=O)c3ccccc23)ccc1F)N1CCN(C(=O)C2CC2)CC1 [OLAPARIB] | > 5000 | > 5000 | > 5000 | 2450 | > 5000 | > 5000 | > 5000 | > 5000 | > 5000 | > 5000 | > 5000 | > 5000 | > 5000 | > 5000 | > 5000 | > 5000 | 1620 | > 5000 | > 5000 | > 5000 | IC50 (HT55): > 5000 nM; IC50 (Kasumi 1): 4400 nM; IC50 (RPMI-8866): > 5000 nM; IC50 (SK-MEL-1): > 5000 nM; IC50 (SKG-IIIa): > 5000 nM; IC50 (8305C): > 5000 nM; IC50 (A549): > 5000 nM; IC50 (TK-10): > 5000 nM; IC50 (CFPAC-1): > 5000 nM
9 | C=CCNC1=C2C[C@@H](C)C[C@H](OC)[C@H](O)[C@@H](C)/C=C(\C)[C@H](OC(N)=O)[C@@H](OC)/C=C\C=C(/C)C(=O)NC(=CC1=O)C2=O [TANESPIMYCIN] | 468 | 45.5 | 317 | 3.9 | 208 | 248 | > 1000 | 43.7 | 386 | > 1000 | 213 | > 1000 | > 1000 | 321 | > 1000 | 72.6 | 237 | 128 | 86.2 | > 1000 | IC50 (HCT-15): > 1000 nM; IC50 (HT55): > 1000 nM; IC50 (NCI-H460): 19.7 nM; IC50 (RPMI-8866): > 1000 nM; IC50 (SK-MEL-1): > 1000 nM; IC50 (SKG-IIIa): 49.9 nM; IC50 (8305C): 725 nM; IC50 (A549): < 3.91 nM; IC50 (TK-10): 231 nM; IC50 (CFPAC-1): 375 nM
